Results from US8110687B2, “Bicyclic compounds with kinase inhibitory activity” (Millennium Pharmaceuticals, Inc., priority 2005, dated 2012).

Test system: phospho-ERK formation (Raf kinase activity) in A375 cells
Experiment: Phospho-ERK ELISA assay
Type: cell-based
Conditions: Homo sapiens, A-375, 3 h, 3 hours with inhibitor, read-out: IC50, inhibition of the formation of phospho-ERK
Procedure: Inhibition of Raf kinase activity in whole cell systems can be assessed by determining the decrease in phosphorylation of Raf kinase substrates. Any known Raf kinase substrate can be used to measure inhibition of Raf kinase activity in a whole cell system.
Medium was removed, and cells were incubated with Raf kinase inhibitors for 3 hours at 37° C. Medium was removed, and cells were fixed with 4% paraformaldehyde for 15 minutes at room temperature.
Methanol was added for 15 min. Cells were removed and blocked with 10% sheep serum and 1% BSA in PBS overnight at 4° C. Cells were incubated with anti-p44/42MAPK antibody (1:100, Cell Signaling Technologies, #9101L) (20 μL/well) for one hour at room temperature. After washing with PBS three times, cells were stained with anti-rabbit horseradish peroxidase-linked antibody from donkey (1:100, Amersham Bioscience #NA934V) for 1 hour at room temperature. Cells were washed three times with 0.5% Tween-20 in PBS and twice with PBS. 3,3′, 5,5′-Tetramethylbenzidine (TMB) liquid substrate system (Sigma, #T8665) (50 μL/well) was added, and cells were incubated for 30-45 minutes at room temperature. Optical density was read at 650 nm. Cells were then washed 3-5 times with PBS to remove color solution. Results were normalized for the protein content in each well using a BCA protein assay kit (Pierce).

Q: How did the IC50 turn out when `CNC(=O)c1cc(Oc2ccc3c(c2)C[C@H](C(=O)Nc2cc(CN)cc(C(F)(F)F)c2)CC3)ccn1` [Compound I-244, 4-{[(7R)-7-({[3-(aminomethyl)-5-(trifluoromethyl)phenyl]amino}carbonyl)-5,6,7,8-tetrahydronaphthalen-2-yl]oxy}-N-methylpyridine-2-carboxamide] was run?
A: The IC50 was ≤ 25 µM.

Q: With `CC(=O)NCc1cc(Oc2ccc3c(c2)CC(C(=O)Nc2cccc(C(C)(C)C)c2)CC3)ccn1` (stereo not shown) [Compound I-246, 7-({2-[(acetylamino)methyl]pyridin-4-yl}oxy)-N-(3-tert-butylphenyl)-1,2,3,4-tetrahydronaphthalene-2-carboxamide] as the molecule, how does the IC50 read?
A: Its IC50 is ≤ 25 µM.

Q: With `CC(C)(C)c1cccc(NC(=O)C2CCc3ccc(Oc4ccnc(NS(C)(=O)=O)c4)cc3C2)c1` (stereo not shown) [Compound I-254, N-(3-tert-butylphenyl)-7-({2-[(methylsulfonyl)amino]pyridin-4-yl}-oxy)-1,2,3,4-tetrahydronaphthalene-2-carboxamide] as the molecule, how does the IC50 read?
A: The IC50 was ≤ 25 µM.

Q: `O=C(Nc1cc(C(F)(F)F)ccc1OCCN1CCNCC1)C1CCc2ccc(Oc3ccnc(C4=NCCN4)c3)cc2C1` (stereo not shown) [Compound I-261, 7-{[2-(4,5-dihydro-1H-imidazol-2-yl)pyridin-4-yl]oxy}-N-[2-(2-piperazin-1-ylethoxy)-5-(trifluoromethyl)phenyl]-1,2,3,4-tetrahydronaphthalene-2-carboxamide] was tested. Which IC50 did it give?
A: The IC50 was ≤ 25 µM.

Q: `NCc1cc(NC(=O)C2CCc3ccc(Oc4ccnc(N)c4)cc3C2)cc(C(F)(F)F)c1` (stereo not shown) [Compound I-271, N-[3-(aminomethyl)-5-(trifluoromethyl)phenyl]-7-[(2-aminopyridin-4-yl)oxy]-1,2,3,4-tetrahydronaphthalene-2-carboxamide] was tested. Which IC50 did it give?
A: The IC50 was ≤ 25 µM.

Q: Which IC50 does the source give for `CC(=O)Nc1cc(Oc2ccc3c(c2)CC(C(=O)Nc2ccc(C(F)(F)F)cc2)CC3)ccn1` (stereo not shown) [Compound I-281, 7-{[2-(acetylamino)pyridin-4-yl]oxy}-N-[4-(trifluoromethyl)phenyl]-1,2,3,4-tetrahydronaphthalene-2-carboxamide] here?
A: Its IC50 is ≤ 25 µM.

Q: For `CC(C)(C)c1cccc(NC(=O)c2cnc3ccc(Oc4ccncc4)cc3c2)c1` [Compound I-299, N-(3-tert-butylphenyl)-6-(pyridin-4-yloxy)quinoline-3-carboxamide], which IC50 is on record?
A: Its IC50 is ≤ 25 µM.

Q: How did the IC50 turn out when `CC(=O)Nc1cc(Oc2ccc3c(c2)CC(C(=O)Nc2ccc(Cl)cc2)CC3)ccn1` (stereo not shown) [Compound I-303, 7-{[2-(acetylamino)pyridin-4-yl]oxy}-N-(4-chlorophenyl)-1,2,3,4-tetrahydronaphthalene-2-carboxamide] was run?
A: The IC50 was ≤ 25 µM.

Q: Which IC50 does the source give for `CC(C)(C)c1cccc(NC(=O)C2CCc3ccc(Oc4ccnc(CN)c4)cc3C2)c1` (stereo not shown) [Compound I-331, 7-{[2-(aminomethyl)pyridin-4-yl]oxy}-N-(3-tert-butylphenyl)-1,2,3,4-tetrahydronaphthalene-2-carboxamide] here?
A: Its IC50 is ≤ 25 µM.

Q: `CC(C)(C)c1cccc(NC(=O)c2ccc3ccc(Oc4ccnc(C#N)c4)cc3c2)c1` [Compound I-340, N-(3-tert-butylphenyl)-7-[(2-cyanopyridin-4-yl)oxy]-2-naphthamide] was tested. Which IC50 did it give?
A: Its IC50 is ≤ 25 µM.

Q: How did the IC50 turn out when `Cn1cc(-c2cc(Oc3ccc4c(c3)CC(C(=O)Nc3cc(CN5CCCC5)cc(C(F)(F)F)c3)CC4)ccn2)cn1` (stereo not shown) [Compound I-344, 7-{[2-(1-methyl-1H-pyrazol-4-yl)pyridin-4-yl]oxy}-N-[3-(pyrrolidin-1-ylmethyl)-5-(trifluoromethyl)phenyl]-1,2,3,4-tetrahydronaphthalene-2-carboxamide] was run?
A: The IC50 was ≤ 25 µM.

Q: How did the IC50 turn out when `CC(C)(C)c1cccc(NC(=O)C2COc3ccc(Oc4ccnc(C5=NCCN5)c4)cc3C2)c1` (stereo not shown) [Compound I-349, N-(3-tert-butylphenyl)-6-{[2-(4,5-dihydro-1H-imidazol-2-yl)pyridin-4-yl]oxy}chromane-3-carboxamide] was run?
A: The IC50 was ≤ 25 µM.

Q: `O=C(Nc1cc(OCCN2CCCC2)cc(C(F)(F)F)c1)c1cnc2ccc(Oc3ccncc3)cc2c1` [Compound I-351, 6-(pyridin-4-yloxy)-N-[3-(2-pyrrolidin-1-ylethoxy)-5-(trifluoromethyl)phenyl]quinoline-3-carboxamide] was tested. Which IC50 did it give?
A: The IC50 was ≤ 25 µM.
